Results from patent US9994548B2, “Phenyl-substituted nicotinic ligands, and methods of use thereof” (Georgetown University, priority 2011, dated 2018).
Like-named read-outs stand apart in the source and are kept apart here.

Legend:
[1] = molecular target: T1, α7 nAChR (Rattus norvegicus, UniProt Q05941); assay: [3H]-epibatidine radioligand competition binding assay; conditions: competition against [3H]-epibatidine
T1 construct: expressed in transfected cells
Experimental: (§1) Stably transfected cell lines, tissue culture conditions, membrane preparation procedures and binding assays were described previously. Briefly, cultured cells at >80% confluence were removed from their flasks (80 cm^2) with a disposable cell scraper and placed in 10 mL of 50 mM Tris.HCl buffer (pH 7.4, 4° C.). The cell suspension was centrifuged at 10,000×g for 5 min and the pellet was collected. The cell pellet was then homogenized in 10 mL buffer with a polytron homogenizer and centrifuged at 36,000 g for 10 min at 4° C. The membrane pellet was resuspended in fresh buffer, and aliquots of the membrane preparation were used for binding assays. The concentration of [^3H]-epibatidine used was ˜500 pM for competition binding assays. […] Bound and free ligands were separated by vacuum filtration through Whatman GF/C filters treated with 0.5% polyethylenimine. The filter-retained radioactivity was measured by liquid scintillation counting. Specific binding was defined as the difference between total binding and nonspecific binding. Data from competition binding assays were analyzed using Prism 5 (GraphPad Software, San Diego, Calif.).
(§2) The in vitro binding affinities of the new ligands were measured for defined receptor subtypes (α2β2, α2β4, α3β2, α3β4, α4β2, α4β4, α6β2, α6β4, and α7) expressed in stably transfected cell lines. [^3H]Epibatidine ([^3H]EB) binds to the agonist recognition site of all of the defined receptor subtypes with high affinities. Rat forebrain homogenates were included to allow comparison between the heterologous and native α4β2 and α7 nAChRs. See FIG. 18 for binding affinity values (Ki) of the ligands at the three major nAChR subtypes (α3β4, […], and α7).
(§3) The binding affinities of all compounds synthesized for the receptor subtypes were examined in binding competition studies against [^3H]-epibatidine.

[2] = molecular target: T2, α4β2 nAChR (Rattus norvegicus, UniProt P09483+P12390); assay: as above
T2 construct: expressed in transfected cells
Experimental: as §1, §2, §3

[3] = molecular target: T3, α3β4 nAChR (Rattus norvegicus, UniProt P04757+P12392); assay: as above
T3 construct: expressed in transfected cells; host or cells: HEK 293 (KXα3β4R2)
Experimental: as §1, §2, §3

[4] = molecular target: T4, human α4β2 nAChRs (Homo sapiens, UniProt P17787+P43681); assay: 86Rb+ efflux assay in stably transfected cells; format: cell-based; conditions: for IC50: 10 min pre-treatment before 100 μM (−)-nicotine, read-out: IC50(10′) α4β2 (desensitization potency)
T4 construct: expressed in transfected cells
Experimental: (§4) The cell line expressing rat α3β4 nAChRs, KXα3β4R2, was established previously by stably transfecting HEK 293 cells with combinations of rat nAChR α3 and β4 subunit genes. The cell line expressing human α4β2 nAChRs, YXα4β2H1, were established recently (Tuan et al., 2012, manuscript in preparation). These cell lines were maintained in minimum essential medium (MEM) supplemented with 10% fetal bovine serum, 100 units/mL penicillin G, […] streptomycin and selective antibiotics at 37° C. with 5% CO2 in a humidified incubator. Tissue culture medium and antibiotics were obtained from Invitrogen Corporation (Carlsbad, Calif.), unless otherwise stated. Fetal bovine serum and horse serum were provided by Gemini Bio-Products (Woodland, Calif.).
(§5) Functional properties of compounds at nAChRs expressed in the transfected cells were measured using ^86Rb^+ efflux assays as described previously. In brief, cells were plated into 24-well plates coated with poly-D-lysine. The plated cells were grown at 37° C. for 18 to 24 hour to reach 85-95% confluence. The cells were then incubated in growth medium (0.5 mL/well) containing ^86Rb^+ (2 μCi/mL) for 4 hour at 37° C. The loading mixture was then aspirated, and the cells were washed four times with 1 mL buffer (15 mM HEPES, 140 mM NaCl, 2 mM KCl, 1 mM MgSO4, 1.8 mM CaCl2, 11 mM Glucose, pH 7.4). One mL of buffer with or without compounds to be tested was then added to each well. After incubation for 2 min, the assay buffer was collected for measurements of ^86Rb^+ released from the cells. Cells were then lysed by adding 1 mL of 100 mM NaOH to each well, and the lysate was collected for determination of the amount of ^86Rb^+ that was in the cells at the end of the efflux assay. Radioactivity of assay samples and lysates was measured by liquid scintillation counting. Total loading (cpm) was calculated as the sum of the assay sample and the lysate of each well. The amount of ^86Rb^+ efflux was expressed as a percentage of ^86Rb^+ loaded. […] For obtaining EC50 and Emax values, stimulation curves were constructed in which 8 different concentrations of a ligand were included in the assay. […] EC50, Emax and IC50(10′) values were determined by nonlinear least-squares regression analyses (GraphPad, San Diego, Calif.).
(§6) Functional properties of the new ligands were determined by ^86Rb^1 efflux assays in cells expressing α3β4 and α4β2 nAChR subtypes. Functional activity of each new ligand was measured in terms of its agonism, antagonism and desensitization ability.
(§7) Agonist activity of each of the ligands was tested at eight concentrations. […] The full concentration-effect curves generated potency (EC50) and efficacy (Emax) of each ligand.
(§8) Though the ^86Rb^+ efflux assays were the main methodology used to determine functional properties, whole-cell current measurements were also used to verify the key experiments.

[5] = molecular target: T5, rat α3β4 nAChRs (Rattus norvegicus, UniProt P04757+P12392); assay: 86Rb+ efflux assay in stably transfected cells; format: cell-based; conditions: for IC50: 10 min pre-treatment before 100 μM (−)-nicotine, read-out: IC50(10′) α3β4 (desensitization potency); for agonist activity at α3β4 nAChRs: 86Rb+ efflux, rat α3β4
T5 construct: expressed in transfected cells; host or cells: HEK 293 (KXα3β4R2)
Experimental: as §4, §5, §6, §7, §8

[6] = human, in vivo; cited from earlier work
[7] = tested on: nicotine self-administration; conditions: subcutaneous, previous studies; cited from earlier work
[8] = competition against [3H]-epibatidine, stably transfected cell membranes, read-out: Ki α3β4
[9] = competition against [3H]-epibatidine, stably transfected cell membranes, read-out: Ki α4β2
[10] = preincubated with the cells for 10 min

SMILES	Ki [1] [µM]	Ki [2] [nM]	Ki [3, 8] [µM]	IC50 [4] [µM]	other results
COc1cc(F)cc(C#Cc2cncc(OC[C@@H]3CCN3)c2)c1 [VMY-2-139, (S)-3-(azetidin-2-ylmethoxy)-5-((3-fluoro-5-methoxyphenyl)ethynyl)pyridine]	1.5	0.076	1.3		
Fc1cccc(C#Cc2cncc(OC[C@@H]3CCN3)c2)c1 [VMY-2-109, (S)-3-(azetidin-2-ylmethoxy)-5-((3-fluorophenyl)ethynyl)pyridine]	0.72	0.032	0.52	0.013	
Fc1ccc(C#Cc2cncc(OC[C@@H]3CCN3)c2)cc1 [VMY-2-101, (S)-3-(azetidin-2-ylmethoxy)-5-((4-fluorophenyl)ethynyl)pyridine]	2	0.083	0.65	0.008	
Cc1cc(F)cc(C#Cc2cncc(OC[C@@H]3CCN3)c2)c1 [VMY-2-135, (S)-3-(azetidin-2-ylmethoxy)-5-((3-fluoro-5-methylphenyl)ethynyl)pyridine]	0.59	0.043	1.1		
C(#Cc1cncc(OCC2CCC2)c1)c1ccccc1 [VMY-2-161, 3-(cyclobutylmethoxy)-5-(phenylethynyl)pyridine]	410		1300	35	Ki [2, 9]: 160000 nM; IC50 [5]: > 100 µM
c1cnc2cc3c(cc2n1)[C@@H]1CNC[C@H]3C1 [varenicline, reference compound]					participants in clinical trials who reported nausea [6]: ~30%; participants in clinical trials who reported vomiting [6]: 18%; percentage of subjects who remained smoke-free for 12 months following treatment [6]: ~22%; agonist activity at α3β4 nAChRs [5]: near-full agonist activity; agonist activity at α4β2 receptors ([4]; 86Rb+ efflux, human α4β2): partial agonist activity; inhibition of nicotine activation of α4β2 receptors [4, 10]: inhibited
FC(F)(F)c1cccc(C#Cc2cncc(OC[C@@H]3CCN3)c2)c1 [VMY-2-117, (S)-3-(azetidin-2-ylmethoxy)-5-((3-(trifluoromethyl)phenyl)ethynyl)pyridine]	1.3	0.26	1.4		selectivity for α4β2 receptors over α3β4 receptors (Ki ratio) [2]: 5,400 times
Fc1ccccc1C#Cc1cncc(OC[C@@H]2CCN2)c1 [VMY-2-105, (S)-3-(azetidin-2-ylmethoxy)-5-((2-fluorophenyl)ethynyl)pyridine]	1.1	0.072	0.58	0.02	
CN1CC[C@H]1COc1cncc(C#Cc2ccccc2)c1 [VMY-2-205, (S)-3-((1-methylazetidin-2-yl)methoxy)-5-(phenylethynyl)pyridine]	7.7	1.2	40	0.37	binding weaker than VMY-2-95 (fold) ([2]; α4β2 binding affinity relative to (S)-N-H VMY-2-95): ~25 times; IC50 [5]: 22 µM
Fc1cc(F)cc(C#Cc2cncc(OC[C@@H]3CCN3)c2)c1 [VMY-2-113, (S)-3-(azetidin-2-ylmethoxy)-5-((3,5-difluorophenyl)ethynyl)pyridine]	1.8	0.05			Ki [3]: 1.4 µM
CN1CCCC1c1cccnc1 (centres unmarked) [nicotine, reference compound]					inhibition of nicotine activation of α4β2 receptors [4]: inhibited
Clc1cccc(C#Cc2cncc(OC[C@@H]3CCN3)c2)c1 [VMY-2-127, (S)-3-(azetidin-2-ylmethoxy)-5-((3-chlorophenyl)ethynyl)pyridine]	0.48	0.093	3.4		
Cc1cccc(C#Cc2cncc(OC[C@@H]3CCN3)c2)c1 [VMY-2-123, (S)-3-(azetidin-2-ylmethoxy)-5-(m-tolylethynyl)pyridine]	0.2	0.046	4		selectivity for α4β2 receptors over α3β4 receptors (Ki ratio) [2]: 87,000 times
OCCCCC#Cc1cncc(OC[C@@H]2CCN2)c1 [Sazetidine-A, reference compound]	1.6		1.9	0.0075	lowest effective dose reducing nicotine self-administration [7]: 3 mg/kg; Ki [2, 9]: 0.062 nM; agonist activity at α3β4 nAChRs [5]: does not show agonist activity; IC50 [5]: > 10 µM; effect on the function of rat α3β4 nAChRs ([5]; concentrations up to 10 μM): had no effect; IC50 ([4]; listed as Saz-A): 0.012 µM; inhibition of nicotine activation of α4β2 receptors [4, 10]: inhibited
CN(C)c1cc(F)cc(C#Cc2cncc(OC[C@@H]3CCN3)c2)c1 [VMY-2-131, (S)-3-((5-(azetidin-2-ylmethoxy)pyridin-3-yl)ethynyl)-5-fluoro-N,N-dimethylaniline]	0.25	0.031	1		
CCCNCCOc1cncc(C#Cc2ccccc2)c1 [VMY-2-177, N-(2-(5-(phenylethynyl)pyridin-3-yloxy)ethyl)propan-1-amine]	48		850	15	Ki [2, 9]: 1100 nM; IC50 [5]: 12 µM
C(#Cc1cncc(OC[C@H]2CCN2)c1)c1ccccc1 [VMY-2-191, (R)-3-(azetidin-2-ylmethoxy)-5-(phenylethynyl)pyridine]	1.6		1.7		Ki [2, 9]: 0.11 nM
